The values that follow come from publication doi:10.1101/2025.05.10.653276 (bioRxiv, 2025).

One series in a line: in vitro. The following applies: human.
Series [1] has as its system B. ovis. Put plainly: microbe, parasite or virus in culture. Format: cell-based. Particulars: Brucella ovis.
Series [2] concerns B. ovis. Put plainly: microbe, parasite or virus in culture. In kind it is cell-based, Brucella ovis. Particulars: for IC50: Brucella ovis.
Series [3] concerns B. ovis. Format: cell-based, Brucella ovis.
For series [4], the system named is B. abortus. Format: cell-based, Brucella abortus.
In series [5] the test system is B. ovis. Format: cell-based, Brucella ovis. The source holds these as a separate data set.
In series [6] the test system is B. abortus. Put plainly: microbe, parasite or virus in culture. In kind it is cell-based, Brucella abortus. The following applies: for IC50: Brucella abortus, 48 h, read-out: IC50, axenic B. abortus WT (Fig. S6B).
Series [7] deals with B. abortus. Put plainly: microbe, parasite or virus in culture. In kind it is cell-based. The following applies: Brucella abortus, THP-1, 48 h, read-out: IC50, intracellular B. abortus.
For series [8], the system named is THP-1 cells.
The test system of series [9] is THP-1 cells. In kind it is cell-based, human.
A further series relates to L-type Ca^2+ channels. Particulars: read-out: Reported IC50 for L-type Ca^2+ channels; cited from earlier work.
Series [10] has as its system B. abortus. In kind it is cell-based, Brucella abortus. This is another data set of the same source.
In series [11] the test system is B. ovis. Format: cell-based, Brucella ovis. The source holds these as a separate data set.
Setting [12] is: THP-1, read-out: Intracellular IC50.
The mark [13] stands for this setting: THP-1, 48 h, read-out: IC50, intracellular B. ovis growth.
Where [14] appears, read: 48 h, read-out: IC50, axenic B. ovis growth.

Where two headings read alike, the source gives them in different places.

In the case of `N[C@@H]1C[C@H]1c1ccccc1` (racemic) [Tranylcypromine], in the series “in vitro”, the CC50 was over 50 µM. Moreover, the IC50 with B. ovis [1] (setting [12]) and with B. ovis [2] (read-out: Axenic IC50) was over 50 µM each time.
Molecule `O=C1CCc2ccc(OCCCCN3CCN(c4cccc(Cl)c4Cl)CC3)cc2N1` [Aripiprazole] gave a CC50 in “in vitro” of 12 µM.
The molecule `c1ccc(-c2ccc(C(c3ccccc3)n3ccnc3)cc2)cc1` (stereo not shown) [Bifonazole] showed a CC50 in the series “in vitro” of over 50 µM. Further, the IC50 – broadly, the concentration at which inhibition is half-maximal – in the series with B. ovis [1] (setting [12]) was 14 µM; with B. ovis [2] (read-out: Axenic IC50) it was 4 µM.
Turning to `C[C@H](CCC(=O)NCCC[N+](C)(C)CCCS(=O)(=O)[O-])[C@H]1CC[C@H]2[C@@H]3[C@H](O)C[C@@H]4C[C@H](O)CC[C@]4(C)[C@H]3C[C@H](O)[C@]12C` [CHAPS], the “Sensitivity of WT B. ovis on TSA blood plates” value (“Sensitivity of WT B. ovis” below) in the series with B. ovis [3] is reported as “highly sensitive”.
For `COCCOC(=O)C1=C(C)NC(C)=C(C(=O)OC/C=C/c2ccccc2)C1c1cccc([N+](=O)[O-])c1` (stereo not shown) [Cilnidipine], in the series with B. abortus [4], the “CFU recovery of ΔbepE B. abortus relative to wild-type in treated THP-1 cells” value was “significant reduction in CFU recovery”. Further, the “Growth of WT B. ovis in liquid culture (kinetic growth assay)” value in the series on B. ovis [5] is on record as “failed to grow”. In addition, the CC50 in “in vitro” is over 50 µM. Moreover, the “Sensitivity of WT and ΔbepE B. abortus in axenic conditions” value in the series with B. abortus [6] is reported as “insensitive”. For the same molecule, the IC50 was over 25 µM with B. abortus [6]; 13.5 µM in the series with B. abortus [7]; 2.5 µM in the series on B. ovis [1] (setting [13]); 2 µM with B. ovis [1] (setting [12]); 5.09 µM in the series with B. ovis [2] (setting [14]); 5 µM in the series on B. ovis [2] (read-out: Axenic IC50). Moreover, in the series with B. ovis [2], the “Concentrations inhibiting B. ovis growth in complex liquid broth” value is listed as “above 5 μM”. Moreover, in the series on THP-1 cells [8], the “Host cytotoxicity in B. ovis-infected THP-1 cells” value is on record as “not due to host cytotoxicity”.
Take `OCCN(CCO)c1nc(N2CCCCC2)c2nc(N(CCO)CCO)nc(N3CCCCC3)c2n1` [Dipyridamole]: in “in vitro”, the CC50 was 41 µM. In addition, the half-inhibitory concentration (IC50) in the series with B. ovis [1] (setting [12]) and with B. ovis [2] (read-out: Axenic IC50) was over 50 µM each time.
As to `CCCCN(CCCC)CCC(O)c1cc2c(Cl)cc(Cl)cc2c2cc(C(F)(F)F)ccc12` (stereo not shown) [Halofantrine], in “in vitro”, the CC50 was over 50 µM. Moreover, the half-maximal inhibitory concentration (IC50) in the series with B. ovis [1] (setting [12]) is over 50 µM; in the series on B. ovis [2] (read-out: Axenic IC50), 11 µM.
For the molecule `COc1ccc(CN2CCN(C(c3ccc(F)cc3)c3ccc(F)cc3)CC2)c(OC)c1OC` [Lomerizine], in the series “in vitro”, the CC50 came out at 50 µM. For the same molecule, the half-maximal inhibitory concentration (IC50) in the series with B. ovis [1] (setting [12]) was 9 µM; in the series with B. ovis [2] (read-out: Axenic IC50), over 50 µM.
Take `COC(=O)C1=C(C)NC(C)=C(C(=O)OCCN(C)Cc2ccccc2)C1c1cccc([N+](=O)[O-])c1` (stereo not shown) [Nicardipine]: the “WT B. abortus CFUs recovered from treated THP-1 cells compared to untreated controls” value with B. abortus [4] is “significantly fewer”. For the same molecule, the “Growth of WT B. ovis in liquid culture (kinetic growth assay)” value in the series with B. ovis [5] is reported as “modest lag”. In “in vitro”, this molecule gave a CC50 of 49 µM. Further, the “Increase in intracellular calcium and manganese levels” value in the series with THP-1 cells [9] is on record as 20–40%. Further, the IC50 is about 25 µM in the series with L-type Ca^2+ channels; over 25 µM in the series on B. abortus [6]; 4.4 µM with B. abortus [7]; 2.3 µM with B. ovis [1] (setting [13]); 2 µM in the series on B. ovis [1] (setting [12]); over 25 µM in the series on B. ovis [2] (setting [14]). For the same molecule, the IC50 in the series with B. ovis [2] (read-out: Axenic IC50) is over 50 µM. Besides, in the series on B. abortus [6], the “Sensitivity of WT and ΔbepE B. abortus in axenic conditions” value is recorded as “insensitive”. The “Effect on terminal density of B. ovis in axenic culture” value with B. ovis [2] is reported as “did not affect the terminal density”. The “Host cytotoxicity in B. ovis-infected THP-1 cells” value with THP-1 cells [8] is “not due to host cytotoxicity”.
As to `CCOc1ccc(NC(C)=O)cc1` [Phenacetin], in the series “in vitro”, the CC50 is over 50 µM. The IC50 in the series on B. ovis [1] (setting [12]) and in the series with B. ovis [2] (read-out: Axenic IC50) was over 50 µM each time.
The molecule `CC(=O)SCC(Cc1ccccc1)C(=O)NCC(=O)OCc1ccccc1` (stereo not shown) [Racecadotril] gave a CC50 in the series “in vitro” of over 50 µM. Further, the IC50 in the series on B. ovis [1] (setting [12]) and in the series with B. ovis [2] (read-out: Axenic IC50) was over 50 µM each time.
Turning to `CCCCCCCCCCCCOS(=O)(=O)[O-].[Na+]` [SDS, sodium dodecyl sulfate], in the series on B. ovis [3], the “Sensitivity of WT B. ovis” value is on record as “highly sensitive”.
Turning to `C[C@H](CCC(=O)O)[C@H]1CC[C@H]2[C@@H]3CC[C@@H]4C[C@H](O)CC[C@]4(C)[C@H]3C[C@H](O)[C@]12C` [deoxycholate], the “Sensitivity of WT B. ovis” value in the series on B. ovis [3] is on record as “highly sensitive”. Further, in the series on B. abortus [6], the “IC50 (B. abortus strain WT)” value stood at 0.067%, the “IC50 (B. abortus strain ΔbepE glmS::bepDE)” value turned out to be 0.052% and the “IC50 (B. abortus strain ΔbepE)” value turned out to be 0.021%. For the same molecule, in the series with B. abortus [10], the “Growth of WT B. abortus on solid media” value is recorded as “modestly impaired WT growth” and the “Growth of ΔbepE B. abortus on solid media” value is on record as “unable to grow”.
`COC(=O)C1=C(C)NC(C)=C(C(=O)OC)C1c1ccccc1[N+](=O)[O-]` [nifedipine]: the “Hit in B. ovis intracellular screen” value with B. ovis [11] is “neither compound emerged as a hit”.
Still for that read-out and setting: with `COc1ccc(CCN(C)CCCC(C#N)(c2ccc(OC)c(OC)c2)C(C)C)cc1OC` (stereo not shown) [verapamil] the entry was “neither compound emerged as a hit”.
